According to US20240325359A1, “ACAT1 INHIBITOR AND METHOD OF USE IN THE TREATMENT OF DISEASE” (Trustees of Dartmouth College, priority 2023, published 2024):

Legend:
human ACAT1 = target: T1, human ACAT1 (Homo sapiens, UniProt P35610); assay: Cholesteryl [3H]-oleate formation in CHO cells stably expressing human ACAT1
T1 sequence (P35610 1-550): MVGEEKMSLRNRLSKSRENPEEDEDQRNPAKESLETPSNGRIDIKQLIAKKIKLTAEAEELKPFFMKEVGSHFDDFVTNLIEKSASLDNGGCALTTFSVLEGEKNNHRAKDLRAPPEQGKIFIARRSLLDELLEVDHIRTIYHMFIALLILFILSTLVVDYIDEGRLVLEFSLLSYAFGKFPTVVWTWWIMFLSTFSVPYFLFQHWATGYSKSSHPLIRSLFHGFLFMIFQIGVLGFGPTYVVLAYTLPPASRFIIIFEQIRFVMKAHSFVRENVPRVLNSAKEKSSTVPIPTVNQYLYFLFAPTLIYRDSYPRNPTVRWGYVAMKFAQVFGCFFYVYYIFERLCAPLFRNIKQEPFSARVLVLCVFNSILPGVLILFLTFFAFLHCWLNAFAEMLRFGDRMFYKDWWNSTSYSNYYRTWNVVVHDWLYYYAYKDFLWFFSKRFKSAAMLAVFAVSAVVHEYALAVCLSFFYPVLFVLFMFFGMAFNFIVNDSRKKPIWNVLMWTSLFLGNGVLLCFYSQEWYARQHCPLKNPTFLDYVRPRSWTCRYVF
Method: (§1) Cells were placed in 10% serum for two days at 37° C. and further incubated with various concentrations of F24 as a stock solution in DMSO for 2 hours. Subsequently, a complex of [3H]-oleic acid and BSA (serving as precursor of oleyl CoA as substrate of ACAT) was fed to the cells for 2 hours. Cells were extensively washed and cellular lipids were extracted with organic solvents. Radioactivity of cholesteryl [3H]-oleate was separated by thin-layer chromatography and determined by scintillation counting.

human ACAT2 = target: T2, human ACAT2 (Homo sapiens, UniProt O75908); assay: Cholesteryl [3H]-oleate formation in CHO cells stably expressing human ACAT2
T2 sequence (O75908 1-522): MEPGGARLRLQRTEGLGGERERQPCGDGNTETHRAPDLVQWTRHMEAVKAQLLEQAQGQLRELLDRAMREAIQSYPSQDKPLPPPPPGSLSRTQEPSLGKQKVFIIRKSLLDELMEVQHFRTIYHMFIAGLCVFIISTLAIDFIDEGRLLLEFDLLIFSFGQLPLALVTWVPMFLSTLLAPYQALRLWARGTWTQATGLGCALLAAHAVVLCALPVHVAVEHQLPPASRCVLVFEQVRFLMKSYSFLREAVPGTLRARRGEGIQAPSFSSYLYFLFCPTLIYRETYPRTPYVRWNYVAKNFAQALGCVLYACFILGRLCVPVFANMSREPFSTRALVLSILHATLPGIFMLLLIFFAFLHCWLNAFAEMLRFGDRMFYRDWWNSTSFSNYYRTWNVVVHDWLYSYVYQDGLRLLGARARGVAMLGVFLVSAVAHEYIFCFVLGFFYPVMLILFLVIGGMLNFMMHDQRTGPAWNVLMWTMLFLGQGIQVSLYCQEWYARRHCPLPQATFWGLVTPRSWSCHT
Method: as §1

[1] = test system: ACAT activity in the brain; assay: ACAT inhibition in mouse tissues after single IV of stealth nanoparticles; format: in vivo, mice
Method: Shown is the efficacy of F12511 vs. F24 encapsulated in nanoparticle and IV delivered to mice. Four hours after IV, various tissues were isolated to monitor ACAT inhibition measurement. Mice were perfused before brains were isolated. N=2-3 WT mice/group. Statistical analysis, 2-way ANOVA. **P<0.01; ***P<0.001.
Nanoparticle Formation. Nanoparticles were prepared according to a general method (Gülçür, et al. (2013) Drug Deliv. Transl. Res. 3(6):562-574; Jhaveri & Torchilin (2014) Front. Pharmacol. 5:77) with modifications. Using a clean glass tube (9 mL capacity), 60 mg of DSPE-PEG2000 (Laysan Bio, Inc (mPEG-DSPE, MW 2,000)) was dissolved in 500 μL of ethanol (EtOH) for a working concentration of 60 mM. […]
Nanoparticle Analysis. […] The content of compound was determined by extrapolation from a standard curve of a concentration gradient of the respective compound produced in the same TLC plate. The plate was stained with iodine and quantified using ImageJ. The TLC/iodine stain method detected compound, and DSPE-PEG2000/PC separately, thus allowing for encapsulation efficiency determination.
Delivery of F24 in Mice via Nanoparticles. […] Four hours after IV delivery, different tissues were isolated and the percent of ACAT inhibition was assessed.

| SMILES | EC50 (human ACAT1) [µM] | fold more potent than F12511 in inhibiting ACAT1 (human ACAT1; ratio of EC50 values, 6 nM vs. 39 nM) | EC50 (human ACAT2) [µM] | fold more potent than F12511 in inhibiting human ACAT2 (human ACAT2; ratio of EC50 values, 11 nM vs. 55 nM) | ACAT inhibition ([1]; adult C57BL/6 mice, single IV of nanoparticle F24 at low dose 0.9 mM, four hours after IV, brain) [%] | brain permeability ([1]; mice, delivered IV via stealth nanoparticle) |
| --- | --- | --- | --- | --- | --- | --- |
| CCCCCCCCCCCCSC(C(=O)Nc1c(SC)cc(C)nc1SC)c1ccccc1 (stereo not shown) [F24] | 0.006 | seven-fold | 0.011 | five-fold | 70 | brain-permeable |
| CCCCCCCCCCCCS[C@H](C(=O)Nc1cc(C)c(O)c(C)c1C)c1ccccc1 [F12511, reference compound] | – | – | 0.055 | – | – | – |
